# Assays:
# 16D^CRPC cells = assay: Cell proliferation, 16D cells that do not express BRN2 (crystal violet); format: cell-based; conditions: result in words
# Protocol: Step 3: Cell Proliferation
# Plate 42DE^NZR (˜7000 cells per well) and 16D^CRPC (˜5000 cells per well) cells in 96 well plate with a volume of 100 μL per well. • 2. Next day 1 mL aliquots of media are combined with 3× the desired concentration of compounds. The aliquots are vortexed and 50 μL of each 3× concentration is added to the 100 μL of media in each well to give the ix desired concentration.
# The following are the desired concentrations:
# 0, 10 nM, 100 nM, 500 nM, 1 μM, 2.5 μM, 5 μM, 10 μM, 15 μM, 20 μM, 30 μM. • 3. Approximately 72 hours later, 17 μL of 10% Glutaraldehyde is added to each well and plates are placed on a shaker for 20-30 minutes. • 4. Media is washed off the fixed cells by slow submersion in a container of water. Then the water is removed by tapping the plate upside down. • 5. 75 μL of Crystal Violet™ solution is added into the 96 well plates and placed on a shaker for ˜30 minutes. • 6. Media is washed off the fixed cells by repeated slow submersion in a container of water and the plates are allowed to dry over-night. • 7. Next day, 75 μL of Sorensen Solution is accurately pipetted into each well. The plates placed on a shaker for ˜30 minutes. • 8. Absorbance is measured in the plate at 590 nm. Compounds that Show Specificity Towards 42DE^NZR Cells Vs 16D^CRPC Cells Progress to Step 4.
# In TABLES 1 and 2, in columns Met Stab % and T½, refers to compound's stability in MLM. There is a distinction in TABLES 1 and 2 difference between “Active” and “Specific” or “Specificity”. Some of the compounds were first tested to quantify inhibition of BRN2 transcriptional activity in a luciferase assay to determine BRN2 inhibition at 10 μM and 30 μM concentrations. […] Generally, compounds having low inhibitory activity were compounds with less than about ˜30% or activation at either concentration (i.e. 10 μM or 30 μM). Furthermore, some compounds that lacked specificity could also show off-target effects.
# [1] = Metabolic stability in liver microsomes (MLM); format: in vitro ADME, mice; conditions: 0.25 mg/mL protein
# In short: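 Mouse liver microsomes (0.25 mg/mL protein) in 50 mM potassium phosphate pH 7.4 at 37 °C with 1 µM compound, 1 mM NADPH, 0.1% DMSO; sampled 0–60 min in duplicate. LC-MS/MS parent depletion gives half-life; CL'int in mL/min/kg scaled with 45 mg protein/g liver, 90 g liver.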
smiles,measurement,setting,value
"O=C1/C(=N\Nc2nc3ccccc3s2)Cc2ccccc21 [7-62, (Z)-2-(2-(benzo[d]thiazol-2-yl)hydrazineylidene)-2,3-dihydro-1H-inden-1-one]",effect on 16D,16D^CRPC cells,no effect on 16D
same,half-life at 1 μM,"[1]; mouse, liver microsomes, pH 7.4, 1 μM compound, read-out: T1/2 in mins (MLM)",40 min
same,Met Stab % (60 mins) MLM,"[1]; percent remaining at 60 min, 1 μM compound, 1 mM NADPH",31%

# From patent US20250205204A1, “Transcription Factor Brn2 Inhibitory Compounds for Use as Therapeutics” (The University of British Columbia, priority 2021, published 2025)
